Patent US11345708B2, “Substituted imidazo[1,2-a]imidazoles as modulators of metabotropic glutamate receptor 4 activity” (Hoffmann-La Roche Inc., priority 2017, dated 2022)

How the values were obtained:
mice [1] = conditions: mice treated with MPTP; cited from earlier work
rodent = conditions: 6-OHDA rodent model of PD; cited from earlier work
human mGlu4 receptor = biological target: T1, human mGlu4 receptor (Homo sapiens, UniProt Q14833); assay: Ca2+ mobilization in vitro assay on recombinant human mGlu4 expressed in HEK293 cells; type: cell-based; conditions: HEK-293 cells stably expressing human mGlu4; L-AP4 added at EC20; Fluo-4 fluorescence; read-out: EC50 (uM) mGlu4 PAM
T1 construct: expressed in transfected cells; host or cells: HEK-293 (monoclonal, stably transfected)
T1 sequence (Q14833 33-912): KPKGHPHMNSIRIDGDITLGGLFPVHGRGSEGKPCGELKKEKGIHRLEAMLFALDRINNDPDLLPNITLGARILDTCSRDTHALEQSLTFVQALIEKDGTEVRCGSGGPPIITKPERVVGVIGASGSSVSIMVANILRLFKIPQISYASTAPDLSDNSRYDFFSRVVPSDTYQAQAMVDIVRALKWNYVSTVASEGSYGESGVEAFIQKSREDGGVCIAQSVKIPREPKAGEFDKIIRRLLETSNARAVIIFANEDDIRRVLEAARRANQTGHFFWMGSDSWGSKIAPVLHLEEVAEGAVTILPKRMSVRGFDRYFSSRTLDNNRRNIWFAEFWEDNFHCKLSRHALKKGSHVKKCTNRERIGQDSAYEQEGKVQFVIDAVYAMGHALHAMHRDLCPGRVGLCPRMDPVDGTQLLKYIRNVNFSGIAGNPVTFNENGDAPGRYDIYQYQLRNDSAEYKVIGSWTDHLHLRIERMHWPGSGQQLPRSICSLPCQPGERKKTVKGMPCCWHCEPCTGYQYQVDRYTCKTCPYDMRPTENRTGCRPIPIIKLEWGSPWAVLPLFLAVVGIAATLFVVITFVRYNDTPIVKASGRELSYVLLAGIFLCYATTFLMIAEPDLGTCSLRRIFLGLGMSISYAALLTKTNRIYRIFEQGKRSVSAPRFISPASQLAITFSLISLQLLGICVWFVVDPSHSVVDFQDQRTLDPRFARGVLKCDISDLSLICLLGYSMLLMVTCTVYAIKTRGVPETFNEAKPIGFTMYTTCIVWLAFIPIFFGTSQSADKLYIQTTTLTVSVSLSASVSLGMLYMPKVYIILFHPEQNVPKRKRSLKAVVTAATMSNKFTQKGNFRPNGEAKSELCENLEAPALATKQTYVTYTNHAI
Protocol: Determination of EC50 Values Using a Ca2+ Mobilization In Vitro Assay on Recombinant Human mGlu4 Expressed in HEK293 Cells:
A monoclonal HEK-293 cell line stably transfected with a cDNA encoding for the human mGlu4 receptor was generated; for the work with mGlu4 Positive Allosteric Modulators (PAMs), a cell line with low receptor expression levels and low constitutive receptor activity was selected to allow the differentiation of agonistic versus PAM activity. Cells were cultured according to standard protocols (Freshney, 2000) in Dulbecco's Modified Eagle Medium with high glucose supplemented with 1 mM glutamine, 10% (vol/vol) heat-inactivated bovine calf serum, Penicillin/Streptomycin, 50 μg/ml hygromycin and 15 μg/ml blasticidin (all cell culture reagents and antibiotics from Invitrogen, Basel, Switzerland).
About 24 hrs before an experiment, 5×10^4 cells/well were seeded in poly-D-lysine coated, black/clear-bottomed 96-well plates. The cells were loaded with 2.5 μM Fluo-4 AM in loading buffer (1×HBSS, 20 mM HEPES) for 1 hr at 37° C. and washed five times with loading buffer. The cells were transferred into a Functional Drug Screening System 7000 (Hamamatsu, Paris, France), and 11 half logarithmic serial dilutions of test compound at 37° C. were added and the cells were incubated for 10-30 min. with on-line recording of fluorescence. Following this pre-incubation step, the agonist (2S)-2-amino-4-phosphonobutanoic acid (L-AP4) was added to the cells at a concentration corresponding to EC20 with on-line recording of fluorescence; in order to account for day-to-day variations in the responsiveness of cells, the EC20 of L-AP4 was determined immediately ahead of each experiment by recording of a full dose-response curve of L-AP4.
Responses were measured as peak increase in fluorescence minus basal (i.e. fluorescence without addition of L-AP4), normalized to the maximal stimulatory effect obtained with saturating concentrations of L-AP4. Graphs were plotted with the % maximal stimulatory using XLfit, a curve fitting program that iteratively plots the data using Levenburg Marquardt algorithm. The single site competition analysis equation used was y=A+((B−A)/(1+((x/C)D))), where y is the % maximal stimulatory effect, A is the minimum y, B is the maximum y, C is the EC50, x is the log 10 of the concentration of the competing compound and D is the slope of the curve (the Hill Coefficient). From these curves the EC50 (drug concentration at which 50% of the maximal receptor activation was achieved), the Hill coefficient as well as the maximal response in % of the maximal stimulatory effect obtained with saturating concentrations of L-AP4 were calculated (see Fig. 1).
A depression of the signal observed after addition of the EC20 concentration of L-AP4 was indicative of an inhibitory activity of the test compound.

mice [2] = conditions: reported by Addex 2010; cited from earlier work
mice [3] = conditions: reported by Addex 2010; cited from earlier work; remark: listed apart in the source
rats = conditions: cited from earlier work

Row | EC50 (human mGlu4 receptor) | Compound | also measured
1 |  | O=C(Nc1ccccc1)C12CC1/C(=N\O)c1ccccc1O2 (single isomer, unassigned; (-)) [(−)-PHCCC] | nigrostriatal degeneration (mice [1]): reduced nigrostriatal degeneration
2 |  | N[C@@H](CCP(=O)(O)O)C(=O)O [L-AP4, (2S)-2-amino-4-phosphonobutanoic acid] | neuroprotection (rodent): neuroprotective effects
3 | 0.422 µM | Cn1nccc1-c1cnc2n1C1(CC1)C(=O)N2c1c(F)cc(C#Cc2ccccc2)cc1F [Example 44, 7′-[2,6-difluoro-4-(2-phenylethynyl)phenyl]-3′-(2-methylpyrazol-3-yl)spiro[cyclopropane-1,5′-imidazo[1,2-a]imidazole]-6′-one] | 
4 | 0.842 µM | CC(O)c1cnc2n1C1(CC1)C(=O)N2c1c(F)cc(-n2cc(C(C)(C)C)cn2)cc1F (centres unmarked) [Example 58, 7′-[4-(4-tert-butylpyrazol-1-yl)-2,6-difluoro-phenyl]-3′-(1-hydroxyethyl)spiro[cyclopropane-1,5′-imidazo[1,2-a]imidazole]-6′-one] | 
5 | 0.243 µM | CC1(C)C(=O)N(c2c(F)cc(C#Cc3ccccc3)cc2F)c2ncc(-c3ccccc3)n21 [Example 31, 1-(2,6-difluoro-4-(phenylethynyl)phenyl)-3,3-dimethyl-5-phenyl-1H-imidazo[1,2-a]imidazol-2(3H)-one] | 
6 |  | Cc1ccnc(Nc2nc(-c3cn[nH]c3)c(C)s2)n1 [ADX88178] | activity in marble burying test (mice [2]): active; activity in EPM (mice [3]): active; profile in rat EPM test (rats; rat, after oral dosing): anxiolytic-like profile; activity in EPM (rats; rats, reported by Addex 2010): active
7 | 0.442 µM | Cn1cnc(-c2cnc3n2C2(CC2)C(=O)N3c2c(F)cc(C#Cc3cccnc3)cc2F)c1 [Example 20, 7′-[2,6-difluoro-4-[2-(3-pyridyl)ethynyl]phenyl]-3′-(1-methylimidazol-4-yl)spiro[cyclopropane-1,5′-imidazo[1,2-a]imidazole]-6′-one] | 
8 | 0.227 µM | Cn1cc(-c2cnc3n2C2(CC2)C(=O)N3c2c(F)cc(-c3ccc(C(C)(F)F)cc3)cc2F)cn1 [Example 35, 1′-(4′-(1,1-difluoroethyl)-3,5-difluoro-[1,1′-biphenyl]-4-yl)-5′-(1-methyl-1H-pyrazol-4-yl)spiro[cyclopropane-1,3′-imidazo[1,2-a]imidazol]-2′(1′H)-one] | 
9 | 0.181 µM | Cc1cnc2n1C1(CC1)C(=O)N2c1c(F)cc(C#Cc2ccccc2)cc1F [Example 47, 3-[2,6-Difluoro-4-(2-phenylethynyl)phenyl]-6-methyl-2,3-dihydrospiro[[1,3]diazolo[1,2-a]imidazole-1,1′-cyclopropane]-2-one] | 
10 | 0.232 µM | CC(C)(C)c1cnn(-c2cc(F)c(N3C(=O)C4(CC4)n4c(-c5ccncn5)cnc43)c(F)c2)c1 [Example 15, 7′-[4-(4-tert-butylpyrazol-1-yl)-2,6-difluoro-phenyl]-3′-pyrimidin-4-yl-spiro[cyclopropane-1,5′-imidazo[1,2-a]imidazole]-6′-one] | 
11 | 0.073 µM | O=C1N(c2c(F)cc(C#Cc3ccccc3)cc2F)c2ncc(-c3ccccc3)n2C12CC2 [Example 24, 3-[2,6-Difluoro-4-(2-phenylethynyl)phenyl]-6-phenyl-2,3-dihydrospiro[[1,3]diazolo[1,2-a]imidazole-1,1′-cyclopropane]-2-one] | 
